What was measured:
[1] = Human pharmacokinetic parameters following a single Sovaprevir tablet dose; assay type: in vivo; details: single tablet dose 200 mg, mean
Protocol: A single 200 mg dose of Sovaprevir was administered to human subjects.
The pharmacokinetic parameters shown in TABLE 4 were measured in humans following administration of a single Sovaprevir tablet dose.

[2] = as above; assay type: in vivo; details: mean
[3] = single tablet dose 100 mg (Fasted)
[4] = single tablet dose 100 mg (Fed)

Compound: C=C[C@@H]1C[C@]1(NC(=O)[C@@H]1C[C@@H](Oc2cc(-c3ccccc3)nc3cc(OC)ccc23)CN1C(=O)[C@@H](CC(=O)N1CCCCC1)C(C)(C)C)C(=O)NS(=O)(=O)C1CC1 [Sovaprevir]
- AUC(0-∞) [1]: 500.0 ng·h/mL
- Cmax [1]: 109 ng/mL
- Tmax [1]: 2.61 h
- AUC(0-72) [2, 3]: 288 ng·h/mL
- AUC(0-∞) [2, 3]: 302 ng·h/mL
- Cmax [2, 3]: 67.2 ng/mL
- Tmax [2, 3]: 1.58 h
- AUC(0-72) [2, 4]: 220 ng·h/mL
- AUC(0-∞) [2, 4]: 228 ng·h/mL
- Cmax [2, 4]: 61.9 ng/mL
- Tmax [2, 4]: 4.20 h
- AUC(0-72) ([2]; single tablet dose 200 mg): 489.9 ng·h/mL
- AUC(0-72) ([2]; single tablet dose 250 mg): 735.6 ng·h/mL
- AUC(0-∞) ([2]; single tablet dose 250 mg): 748.8 ng·h/mL
- Cmax ([2]; single tablet dose 250 mg): 172 ng/mL
- Tmax ([2]; single tablet dose 250 mg): 3.40 h
- AUC(0-72) ([2]; single tablet dose 300 mg): 1301 ng·h/mL
- AUC(0-∞) ([2]; single tablet dose 300 mg): 1314 ng·h/mL
- Cmax ([2]; single tablet dose 300 mg): 333 ng/mL
- Tmax ([2]; single tablet dose 300 mg): 3.39 h

From US20140271855A1, “SOVAPREVIR TABLETS” (Achillion Pharmaceuticals Inc., priority 2013, published 2014)
